From US12180207B2 (ARRAY BIOPHARMA INC., priority 2018, dated 2024)

Legend:
[1] = target: dephosphorylated FGFR1 (SEQ ID NO: 1, amino acids 458 to 765) (Homo sapiens (Human), UniProt P11362); test: FGFR enzyme binding assay (HTRF tracer displacement), FGFR1; conditions: 5 nM dephosphorylated FGFR1, average of multiple determinations if made
Protocol: (§1) The potency of compounds inhibiting human isoforms of FGFR kinase was determined using Life Technologies' Homogeneous Time Resolved Fluorescence (HTRF)-based binding assay technology. […] After a 60 minute incubation at 22° C., the extent of tracer displacement was determined using a PerkinElmer EnVision multimode plate reader via HTRF dual wavelength detection, and the percent of control (POC) was calculated using a ratiometric emission factor. One hundred POC was determined using no test compound, and 0 POC was determined in the presence of 1 μM of an appropriate control inhibitor.

[2] = target: phosphorylated FGFR3 (SEQ ID NO: 5, amino acids 449 to 759) (Homo sapiens (Human), UniProt P22607); test: FGFR enzyme binding assay (HTRF tracer displacement), FGFR3; conditions: 5 nM phosphorylated FGFR3, average of multiple determinations if made
Protocol: as §1

[3] = target: recombinant human FGFR1 catalytic domain (amino acids 308-731) (Homo sapiens (Human), UniProt P11362); test: FGFR1 enzyme activity assay (LanthaScreen TR-FRET); type: biochemical; conditions: 20 min incubation at 22° C., average of multiple determinations if made, read-out: FGFR1 Enz FRET IC50
Protocol: FGFR1 kinase activity was measured by the Invitrogen LanthaScreen™ Assay technology which directly measures the amount of substrate phosphorylation by Time-resolved fluorescence energy transfer (TR-FRET) using a fluorescently-labeled peptide and Europium-labeled antibody. Briefly, […] His-tagged recombinant human FGFR1 catalytic domain (amino acids 308-731) (Life Technologies Cat. No. PR4660A) was incubated with 100 nM Alexa Fluor® 647-Poly-GT Peptide Substrate (Life Technologies Cat. No. PV5836) and […] ATP along with test compound in a buffer consisting of 250 mM HEPES, 25 mM MgCl2, 0.05% TritonX-100, pH 7.5, and 2% DMSO. […] After a 20 minutes incubation at 22° C., an equal volume of 2 nM LanthaScreen® Eu-PY20 Antibody (Life Technologies Cat. No. PV5691) and 10 mM EDTA was added to quench the kinase reaction and start the detection reaction. After an additional 60 minute incubation at 22° C., the reaction was measured using a PerkinElmer EnVision multimode plate reader via TR-FRET dual wavelength detection, and the percent of control (POC) calculated using a ratiometric emission factor. 100 POC was determined using no test compounds and 0 POC was determined using no enzyme. The POC values were fit to a 4-parameter logistic curve as a function of the concentration of the compound, and the IC50 value is the point where the curve crosses 50 POC.

[4] = target: recombinant human FGFR2 cytoplasmic domain (amino acids 403-822) (Homo sapiens (Human), UniProt P21802); test: FGFR2 enzyme activity assay (LanthaScreen TR-FRET); type: biochemical; conditions: 15 μM ATP, 20 min incubation at 22° C., average of multiple determinations if made, read-out: FGFR2 Enz FRET IC50
Protocol: FGFR2 kinase activity was measured by the Invitrogen LanthaScreen™ Assay technology which directly measures the amount of substrate phosphorylation by TR-FRET using a fluorescently-labeled peptide and Europium-labeled antibody. Briefly, […] His-tagged recombinant human FGFR2 cytoplasmic domain (amino acids 403-822) (Life Technologies Cat. No. PR5332A) was incubated with 100 nM Alexa Fluor® 647-Poly-GT Peptide Substrate (Life Technologies Cat. No. PV5836) and 15 μM ATP along with test compound in a buffer consisting of 250 mM HEPES, 25 mM MgCl2, 0.05% TritonX-100, pH 7.5, and 2% DMSO. […] After a 20 minute incubation at 22° C., an equal volume of 2 nM LanthaScreen® Eu-PY20 Antibody (Life Technologies Cat. No. PV5691) and 10 mM EDTA were added to quench the kinase reaction and start the detection reaction. After an additional 60 minute incubation at 22° C., the reaction was measured using a PerkinElmer EnVision multimode plate reader via TR-FRET dual wavelength detection, and the percent of control (POC) calculated using a ratiometric emission factor. 100 POC was determined using no test compounds and 0 POC was determined using no enzyme. The POC values were fit to a 4-parameter logistic curve as a function of the concentration of the compound, and the IC50 value is the point where the curve crosses 50 POC.

[5] = target: recombinant human FGFR3 (amino acids R397-T806) (Homo sapiens (Human), UniProt P22607); test: FGFR3 enzyme activity assay (LanthaScreen TR-FRET); type: biochemical; conditions: 25 μM ATP, 10 min incubation at 22° C., average of multiple determinations if made, read-out: FGFR3 Enz FRET IC50
Protocol: FGFR3 kinase activity was measured by the Invitrogen LanthaScreen™ Assay technology which directly measures the amount of substrate phosphorylation by TR-FRET using a fluorescently-labeled peptide and Europium-labeled antibody. Briefly, […] N-terminal GST-HIS6 fusion protein with a 3C cleavage site recombinant human FGFR3 (amino acids R397-T806) (ProQinase Cat. No. 1068-0000-1) was incubated with 100 nM Alexa Fluor® 647-Poly-GT Peptide Substrate (Life Technologies Cat. No. PV5836) and 25 μM ATP along with test compound in a buffer consisting of 250 mM HEPES, 25 mM MgCl2, 0.05% TritonX-100, pH 7.5, and 2% DMSO. […] After a 10 minute incubation at 22° C., an equal volume of 2 nM LanthaScreen® Eu-PY20 Antibody (Life Technologies Cat. No. PV5691) and 10 mM EDTA were added to quench the kinase reaction and start the detection reaction. After an additional 60 minute incubation at 22° C., the reaction was measured using a PerkinElmer EnVision multimode plate reader via TR-FRET dual wavelength detection, and the percent of control (POC) calculated using a ratiometric emission factor. 100 POC was determined using no test compounds and 0 POC was determined using no enzyme. The POC values were fit to a 4-parameter logistic curve as a function of the concentration of the compound, and the IC50 value is the point where the curve crosses 50 POC.

[6] = target: FGFR1 (SEQ ID NO: 1, amino acids 458-765) (Homo sapiens (Human), UniProt P11362); test: LC/MS FGFR1 kobs assay (covalent protein modification); type: binding; conditions: 500 nM FGFR1, 3 μM compound
Protocol: (§2) The LC/MS FGFR1 and FGFR3 kobs assays were conducted as follows. […] At each time point, the reaction was quenched with 20 μL of 0.4% formic acid. The extent of protein modification by each compound was determined by LC/MS on an Agilent Technologies 6520 Q-TOF LC/MS. Protein signals were then automatically deconvoluted using Agilent Masshunter software. Deconvoluted mass signals were exported to Tibco Spotfire data analysis program for further processing and normalization.
(§3) Data analysis included five steps. First, the signals for the “DMSO Controls” were analyzed to determine the percent of signal associated with unmodified FGFR1 or FGFR3 at each time point. Next, the percent of the signal associated with the covalent modification was determined. Third, the average nonmodified “DMSO Control” signal was used to normalize the modified protein signals at each time point. The percent of unmodified protein was fit to an exponential decay model where A0 is the Percent Unmodified at the start of the reaction, and kobs is the observed rate constant over the time period.

[7] = target: FGFR3 (SEQ ID NO: 5, amino acids 449-759) (Homo sapiens (Human), UniProt P22607); test: LC/MS FGFR3 kobs assay (covalent protein modification); type: binding; conditions: 500 nM FGFR3, 3 μM compound
Protocol: as §2, §3
Table EC contains kobs values for compounds tested in these assays, presented as the average of multiple determinations if multiple determinations were made. ND=not determined.

recombinant human FGFR3 (amino acids R397-T806), sequence (P22607 397-806): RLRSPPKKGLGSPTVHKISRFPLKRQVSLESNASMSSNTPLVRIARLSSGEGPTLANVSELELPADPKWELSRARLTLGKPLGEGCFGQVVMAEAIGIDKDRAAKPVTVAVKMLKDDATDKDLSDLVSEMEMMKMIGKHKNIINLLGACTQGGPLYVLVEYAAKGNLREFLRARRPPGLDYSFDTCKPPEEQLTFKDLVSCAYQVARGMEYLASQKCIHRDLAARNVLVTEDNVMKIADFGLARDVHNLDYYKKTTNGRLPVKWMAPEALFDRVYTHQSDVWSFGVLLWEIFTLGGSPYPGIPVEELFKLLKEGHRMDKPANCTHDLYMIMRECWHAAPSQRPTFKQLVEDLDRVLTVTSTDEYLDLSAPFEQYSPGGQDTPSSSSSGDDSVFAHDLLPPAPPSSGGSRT
recombinant human FGFR2 cytoplasmic domain (amino acids 403-822), sequence (P21802 402-821): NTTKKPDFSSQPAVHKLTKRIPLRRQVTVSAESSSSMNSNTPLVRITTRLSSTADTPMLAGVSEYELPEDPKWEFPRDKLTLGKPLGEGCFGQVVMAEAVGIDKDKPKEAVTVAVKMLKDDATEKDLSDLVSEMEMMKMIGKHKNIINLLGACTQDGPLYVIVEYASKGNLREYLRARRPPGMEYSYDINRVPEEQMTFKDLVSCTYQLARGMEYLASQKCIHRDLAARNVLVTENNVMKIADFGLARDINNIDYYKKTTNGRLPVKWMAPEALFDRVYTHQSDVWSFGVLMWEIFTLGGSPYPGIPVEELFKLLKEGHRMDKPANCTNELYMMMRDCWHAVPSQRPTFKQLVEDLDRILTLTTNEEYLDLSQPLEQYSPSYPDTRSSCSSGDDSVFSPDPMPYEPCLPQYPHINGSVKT
FGFR1 (SEQ ID NO: 1, amino acids 458-765), sequence (P11362 458-765): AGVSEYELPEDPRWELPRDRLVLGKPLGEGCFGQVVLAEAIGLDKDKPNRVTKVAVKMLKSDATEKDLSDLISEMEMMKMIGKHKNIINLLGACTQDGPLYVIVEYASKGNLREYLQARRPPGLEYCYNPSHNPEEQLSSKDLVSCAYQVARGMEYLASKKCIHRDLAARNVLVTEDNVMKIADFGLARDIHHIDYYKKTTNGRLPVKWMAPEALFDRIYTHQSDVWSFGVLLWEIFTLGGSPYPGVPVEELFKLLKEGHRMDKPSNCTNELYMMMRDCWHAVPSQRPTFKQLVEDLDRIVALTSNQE
dephosphorylated FGFR1 (SEQ ID NO: 1, amino acids 458 to 765), sequence (P11362 458-765): as above
recombinant human FGFR1 catalytic domain (amino acids 308-731), sequence (P11362 other isoform, or with tags, fused parts or gaps): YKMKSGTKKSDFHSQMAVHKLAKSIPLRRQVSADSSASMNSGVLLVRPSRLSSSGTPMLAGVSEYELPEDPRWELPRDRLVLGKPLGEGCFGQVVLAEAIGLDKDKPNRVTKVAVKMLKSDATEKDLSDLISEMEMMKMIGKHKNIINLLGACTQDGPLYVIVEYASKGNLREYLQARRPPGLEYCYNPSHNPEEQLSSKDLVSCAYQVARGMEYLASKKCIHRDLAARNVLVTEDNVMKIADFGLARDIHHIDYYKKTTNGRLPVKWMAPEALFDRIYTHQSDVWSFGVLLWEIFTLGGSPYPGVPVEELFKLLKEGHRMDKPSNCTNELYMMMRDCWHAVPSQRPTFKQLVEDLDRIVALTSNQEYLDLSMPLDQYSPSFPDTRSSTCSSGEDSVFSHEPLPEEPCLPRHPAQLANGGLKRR
phosphorylated FGFR3 (SEQ ID NO: 5, amino acids 449 to 759), sequence (P22607 449-759): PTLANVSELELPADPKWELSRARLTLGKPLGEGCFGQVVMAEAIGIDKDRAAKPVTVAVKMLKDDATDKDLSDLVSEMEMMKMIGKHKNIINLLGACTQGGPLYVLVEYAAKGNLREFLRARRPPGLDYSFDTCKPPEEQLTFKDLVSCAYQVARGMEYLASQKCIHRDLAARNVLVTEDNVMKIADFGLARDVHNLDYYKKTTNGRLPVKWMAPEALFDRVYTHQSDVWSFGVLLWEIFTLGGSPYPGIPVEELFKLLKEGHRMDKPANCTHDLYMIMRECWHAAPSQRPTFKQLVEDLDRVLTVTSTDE
FGFR3 (SEQ ID NO: 5, amino acids 449-759), sequence (P22607 449-759): as above

Row | Structure (SMILES) | IC50 [1] [µM] | IC50 [2] [µM] | IC50 [3] [µM] | IC50 [4] [µM] | IC50 [5] [µM] | FGFR1 Enz kobs [6] [min⁻¹] | FGFR3 Enz kobs [7] [min⁻¹]
1 | C=CC(=O)N1CCN(C(=O)N2CCC(n3cc(-c4cc(OC)c5c(C#N)cnn5c4)cn3)CC2)CC1 [Example 2, 6-(1-(1-(4-acryloylpiperazine-1-carbonyl)piperidin-4-yl)-1H-pyrazol-4-yl)-4-methoxypyrazolo[1,5-a]pyridine-3-carbonitrile] | 0.045 | 0.004 | 0.004 | 0.014 | 0.004 | 0.00076 | 0.00444
2 | C=CC(=O)N1CC2CC(C1)N2C(=O)N1CCC(n2cc(-c3cc(OC)c4c(C#N)cnn4c3)cn2)CC1 [Example 4, 6-(1-(1-(3-acryloyl-3,6-diazabicyclo[3.1.1]heptane-6-carbonyl)piperidin-4-yl)-1H-pyrazol-4-yl)-4-methoxypyrazolo[1,5-a]pyridine-3-carbonitrile] | 0.042 | 0.006 | 0.011 | 0.004 | 0.003 | 0.00052 | 0.00283
3 | C=CC(=O)N1C[C@H]2C[C@@H]1CN2C(=O)N1CCC(n2cc(-c3cc(OC)c4c(C#N)cnn4c3)cn2)CC1 [Example 5, 6-(1-(1-((1R,4R)-5-acryloyl-2,5-diazabicyclo[2.2.1]heptane-2-carbonyl)piperidin-4-yl)-1H-pyrazol-4-yl)-4-methoxypyrazolo[1,5-a]pyridine-3-carbonitrile] | 0.047 | 0.005 | 0.025 | 0.011 | 0.007 | 0.00047 | 0.00287
4 | C=CC(=O)N1CCC[C@H](C(=O)N2CCC(n3cc(-c4cc(OC)c5c(C#N)cnn5c4)cn3)CC2)C1 [Example 16, (S)-6-(1-(1-(1-acryloylpiperidine-3-carbonyl)piperidin-4-yl)-1H-pyrazol-4-yl)-4-methoxypyrazolo[1,5-a]pyridine-3-carbonitrile] | 0.031 | 0.006 | 0.02 | 0.004 | 0.002 | 0.00054 | 0.00124
5 | C=CC(=O)N1CCC[C@@H](C(=O)N2CC[C@H](n3cc(-c4cc(OC)c5c(C#N)cnn5c4)cn3)C2)C1 [Example 64, 6-(1-((S)-1-((R)-1-acryloylpiperidine-3-carbonyl)pyrrolidin-3-yl)-1H-pyrazol-4-yl)-4-methoxypyrazolo[1,5-a]pyridine-3-carbonitrile] | 0.094 | 0.02 | 0.023 | 0.005 | 0.002 | – | 0.00074
6 | C=CC(=O)N[C@H]1CC[C@H](C(=O)N2CC[C@H](n3cc(-c4cc(OC)c5c(C#N)cnn5c4)cn3)C2)CC1 [Example 65, N-((1S,4r)-4-((S)-3-(4-(3-cyano-4-methoxypyrazolo[1,5-a]pyridin-6-yl)-1H-pyrazol-1-yl)pyrrolidine-1-carbonyl)cyclohexyl)acryl-amide] | 0.177 | 0.056 | 0.026 | 0.006 | 0.003 | – | 0.0002
7 | C=CC(=O)N[C@H]1C[C@H](C(=O)N2CC[C@H](n3cc(-c4cc(OC)c5c(C#N)cnn5c4)cn3)C2)C1 [Example 74, N-((1S,3r)-3-((S)-3-(4-(3-cyano-4-methoxypyrazolo[1,5-a]pyridin-6-yl)-1H-pyrazol-1-yl)pyrrolidine-1-carbonyl)cyclobutyl)acryl-amide] | 0.018 | 0.003 | 0.019 | 0.006 | 0.002 | – | 0.00063
8 | C=CC(=O)N[C@H]1C[C@H](C(=O)N2CC(n3cc(-c4cc(OC)c5c(C#N)cnn5c4)cn3)C2)C1 [Example 79, N-((1r,3r)-3-(3-(4-(3-cyano-4-methoxypyrazolo[1,5-a]pyridin-6-yl)-1H-pyrazol-1-yl)azetidine-1-carbonyl)cyclobutyl)acryl-amide] | 0.447 | 0.079 | 0.036 | 0.011 | 0.01 | – | 0.00116
9 | CC#CC(=O)N1CC(C(=O)N2CCC(n3cc(-c4cc(OC)c5c(C#N)cnn5c4)cn3)CC2)C1 [Example 139, 6-(1-(1-(1-(but-2-ynoyl)azetidine-3-carbonyl)piperidin-4-yl)-1H-pyrazol-4-yl)-4-methoxypyrazolo [1,5-a]pyridine-3-carbonitrile] | 0.104 | 0.011 | 0.013 | – | 0.004 | 0.00047 | 0.00281
